From paper PMC7168264, “Modified Aminoglycosides Bind Nucleic Acids in High-Molecular-Weight Complexes” (Antibiotics, 2020)
Several values for one entry are separate records, joined by “and”; a condition that tells them apart may be missing. Equal entries are not always repeated. Where two headings read alike, the source gives them in different places.

Tests used:
[1] = target: HIV-1 RT WT (Human immunodeficiency virus type 1 group M subtype B, UniProt P04585); experiment: biochemical
Procedure: (§1) Plasmids pET-RT66 and p6H-RT51, which overexpress HIV-1 RT subunits p66 and His6-tagged p51, were generously provided by Samuel Wilson (NIH). Mutations K103N and Y181C were each introduced into pET-RT66 using QuikChange^TM mutagenesis. Subunits p66 and His6-p51 were overproduced in E. coli strains BL21/DE3 and DH5α, respectively, and the RT heterodimer (WT or mutant forms) was reconstituted in mixed lysates and purified essentially as described. Each overexpression strain was grown in LB medium with appropriate antibiotics at 37 °C until the culture reached an OD600 of 0.6, IPTG (0.5 mM) was added, and the culture was further incubated for 3.5 h to allow ample protein production. Cells (from 4 L culture) were pelleted and stored at −20 °C. All subsequent steps were performed at 4 °C. Each cell pellet was resuspended in 20 mL buffer A [50 mM Tris-HCl (pH 7.9), 60 mM NaCl, 10% glycerol, 1 mM βME, and protease inhibitors (Protease Inhibitor Cocktail, Roche Diagnostics)], and the cells were lysed using a French Press. The lysate was clarified by centrifugation at 5900 g for 15 min, and the protein concentration of each lysate was estimated using the Bradford assay. Based on these estimates, each p66 strain lysate was separately mixed with p51 strain lysate in a 3:1 ratio. Each mixture was passed through a Q-Sepharose column (2 mL, Bio-Rad), pre-equilibrated with buffer A, and the flow-through (containing HIV-1 RT) was collected. NaCl (0.5 M), imidazole (10 mM), and 4 mL of His-Bind nickel column resin (Ni-NTA Agarose, QIAGEN) pre-equilibrated in buffer B [50 mM Tris-HCl (pH 7.9), 500 mM NaCl, 10 mM imidazole, 10% glycerol, and 1 mM βME] were added, and the mixture was rotated for 1 h. The resin was poured into a column and washed with 10 column volumes (CV) of buffer B, 10 CV of buffer C [50 mM Tris-HCl (pH 7.9), 1 M NaCl, 10 mM imidazole, 10% glycerol, and 1 mM βME], and 10 CV of buffer D [50 mM Tris-HCl (pH 7.9), 1 M NaCl, 15 mM imidazole, 10% glycerol, and 1 mM βME]. Proteins were eluted from the column with an imidazole gradient (10–500 mM) in buffer B. Fractions (0.5 mL) were collected, and DTT (2 mM) and EDTA (5 mM) were added to each fraction. Fractions were analyzed by SDS-PAGE, and those containing p66 and p51 at a 1:1 ratio were pooled. The RT was further purified using a FPLC RESOURCE S column (6 mL, GE Healthcare). The protein was bound to the column, washed with 10 CV of buffer E [50 mM Tris-HCl (pH 6.5), 60 mM NaCl, 10% glycerol, and 1 mM βME], and eluted using a NaCl gradient. Fractions (0.5 mL) containing purified RT with p66 and p51 subunits at a 1:1 ratio were pooled, dialyzed against buffer F [50 mM Tris-HCl (pH 7.5), 100 mM NaCl, 1 mM βME, and 10% glycerol], and stored at −20 °C.
(§2) To assay multi-nucleotide incorporation by RT, 5′-[^32P]-labeled primer (~0.05 µM) was annealed to mRNA (0.33 µM, unless otherwise indicated), RT (HIV-1 or AMV; 32 nM) and the four deoxynucleotide triphosphates (dNTPs; 375 µM each) in buffer G [10 mM Tris-HCl (pH 7.5), 60 mM NH4Cl, 10 mM MgCl2, and 6 mM βME] were added, in the absence or presence of inhibitor (as indicated), and reactions were incubated at 37 °C for 10 min. An equal volume of stop buffer (95% formamide, 20 mM EDTA, 0.05% xylene cyanol, and 0.05% bromophenol blue) was added, and products were analyzed by denaturing 7% PAGE. The relative amount of the full-length cDNA product (y) was plotted as a function of inhibitor concentration, and the data were fit to the modified dose response equation y = a + b/[1 + (x/c)]

[2] = system: avian myeloblastosis virus (AMV) reverse transcriptase (RT); experiment: Multi-nucleotide primer extension assay, AMV RT; assay type: biochemical; conditions: primer extension on RNA template, 10 min at 37 °C; read-out: IC50, full-length cDNA product, AMV RT
Procedure: as §2

[3] = target: T1, HIV-1 RT Y181C (Human immunodeficiency virus type 1 group M subtype B, UniProt P04585, Y768C); experiment: Multi-nucleotide primer extension assay, Y181C HIV-1 RT; assay type: biochemical
T1 construct: overexpress HIV-1 RT subunits p66 and His6-tagged p51; made in house; host or cells: E. coli BL21/DE3 (p66) and DH5α (His6-p51)
Procedure: as §1, §2

[4] = target: T2, HIV-1 RT K103N (Human immunodeficiency virus type 1 group M subtype B, UniProt P04585, K690N); experiment: Multi-nucleotide primer extension assay, K103N HIV-1 RT; assay type: biochemical; conditions: mean ± SEM from 3 or more independent experiments
T2 construct: overexpress HIV-1 RT subunits p66 and His6-tagged p51; made in house; host or cells: E. coli BL21/DE3 (p66) and DH5α (His6-p51)
Procedure: as §1, §2

[5] = system: AMV RT; experiment: Single-nucleotide incorporation kinetics (quench-flow), AMV RT; assay type: biochemical, avian myeloblastosis virus; conditions: read-out: IC50, amplitude of single-nucleotide incorporation
Procedure: (§3) Single-nucleotide incorporation by RT was measured using a quench-flow machine (KinTek RQF-3). Typically, 5′-[^32P]-labeled primer (<0.05 µM) was annealed to mRNA (0.2 µM), equilibrated in buffer H [Tris-HCl (pH 7.5), 80 mM KCl, 20 mM MgCl2, 2 mM DTT] with RT (AMV or HIV-1, as indicated) in the absence or presence of inhibitor (as indicated), and rapidly mixed with dATP (variable concentration, as indicated). Each reaction was quenched with 0.5 M EDTA at various time points; the data were plotted and fit to a single exponential equation to obtain observed rate and amplitude.

[6] = target: T3, HIV-1 RT (Human immunodeficiency virus type 1 group M subtype B, UniProt P04585); experiment: Order-of-addition single-nucleotide incorporation, HIV-1 RT; assay type: biochemical; conditions: 20 min 37 °C, then combined 1 min
T3 construct: overexpress HIV-1 RT subunits p66 and His6-tagged p51; made in house; host or cells: E. coli BL21/DE3 (p66) and DH5α (His6-p51)
Procedure: as §3

[7] = target: Radiolabeled RNA oligonucleotide; experiment: Ultrafiltration binding experiment, RNA oligonucleotide; conditions: fraction in complexes >300 kDa by ultrafiltration (300 kDa MWCO), buffer H, 25 °C, 15 min, read-out: apparent KD, RNA oligonucleotide
Procedure: (§4) For binding reactions, components were incubated in buffer H at 25 °C for 15 min. The fraction of bound 5′-[^32P]-labeled nucleic acid was evaluated using native 6% PAGE or ultrafiltration devices (Nanosep Omega, PALL Life Sciences).

[8] = target: Radiolabeled DNA oligonucleotide; experiment: Ultrafiltration binding experiment, DNA oligonucleotide; conditions: fraction in complexes >300 kDa by ultrafiltration (300 kDa MWCO), buffer H, 25 °C, 15 min, read-out: apparent KD, DNA oligonucleotide
Procedure: as §4

[9] = system: radiolabeled 18mer DNA oligonucleotide; experiment: Gel mobility shift experiment (native PAGE); assay type: binding; conditions: compound 100 µM preincubated with 18mer DNA, native gel electrophoresis
Procedure: as §4

Compound	IC50 [1] [nM]	IC50 [2]	IC50 [3] [nM]	IC50 [4] [µM]	IC50 ([5]; dATP at 10 µM) [nM]	IC50 ([5]; dATP at 150 µM) [nM]	Product formation, single-nucleotide incorporation ([6]; compound preincubated with RT)	Product formation, single-nucleotide incorporation ([6]; compound preincubated with primer:template in the absence of RT)	Kd ([7]; listed as KAN-C12) [nM]	Kd [7] [nM]	Kd ([8]; listed as KAN-C12) [nM]	Kd [8] [nM]	Gel mobility shift of oligonucleotide [9]
NC[C@H]1O[C@H](O[C@H]2[C@H](O)[C@@H](O[C@H]3O[C@H](CSc4ccc5ccccc5c4)[C@@H](O)[C@H](N)[C@H]3O)[C@H](N)C[C@@H]2N)[C@H](N)C[C@@H]1O [TOB-Nap]	40000 ± 5000	23000 nM	12000 ± 4000	40 ± 11									
CCCCCCCCCCSC[C@H]1O[C@H](O[C@@H]2[C@@H](O)[C@H](O[C@H]3O[C@H](CN)[C@@H](O)[C@H](O)[C@H]3N)[C@@H](N)C[C@H]2N)[C@H](O)[C@@H](N)[C@@H]1O [KANB-C10]	3800 ± 300		1000 ± 600	1.9 ± 0.3									
CCCCCCCCSC[C@H]1O[C@H](O[C@@H]2[C@@H](O)[C@H](O[C@H]3O[C@H](CN)[C@@H](O)[C@H](O)[C@H]3N)[C@@H](N)C[C@H]2N)[C@H](O)[C@@H](N)[C@@H]1O [KANB-C8]	8000 ± 3000		8000 ± 2000	7 ± 1									
CCCCCCCCCCCCCCSC[C@H]1O[C@H](O[C@@H]2[C@@H](O)[C@H](O[C@H]3O[C@H](CN)[C@@H](O)C[C@H]3N)[C@@H](N)C[C@H]2N)[C@H](O)[C@@H](N)[C@@H]1O [TOB-C14]	1900 ± 300	~1000 nM and 1100 nM	1400 ± 400	1.2 ± 0.6									
CCCCCCCCCCCCSC[C@H]1O[C@H](O[C@@H]2[C@@H](O)[C@H](O[C@H]3O[C@H](CN)[C@@H](O)C[C@H]3N)[C@@H](N)C[C@H]2N)[C@H](O)[C@@H](N)[C@@H]1O [TOB-C12]	300 ± 100	~1000 nM and 1600 nM	500 ± 100	0.6 ± 0.1	13000	17000	hindered product formation to a lesser degree	no detectable product					
CCCCCCCCCCCCSC[C@H]1O[C@H](O[C@@H]2[C@@H](O)[C@H](O[C@H]3O[C@H](CN)[C@@H](O)[C@H](O)[C@H]3N)[C@@H](N)C[C@H]2N)[C@H](O)[C@@H](N)[C@@H]1O [KANB-C12]	1900 ± 300		500 ± 300	2 ± 0.2					1100	~1000	600	~1000	all signal was shifted to the well
